# Test results from ChEMBL document CHEMBL4419173, “Small-molecule inhibitors targeting g-protein-coupled rho guanine nucleotide exchange factors” (2014).
# The source made the active and inactive calls. The rule behind the calls is not given here.
# Key:
# Format in all cases: cell-based
# Mus musculus [1] = organism: Mus musculus; assay: Inhibition of RhoGEF in mouse NIH/3T3 cells assessed as inhibition of 10% calf serum-induced Cdc42-GTP formation by measuring Cdc42-GTP level at 10 uM incubated for 24 hrs by densitometry relative to control (reference value: 3.25)
# [2] = biological target: Serine/threonine-protein kinase N1/Transforming protein RhoA (Homo sapiens) (UniProt Q16512+P61586); assay: Inhibition of human PKN1 expressed in mouse NIH/3T3 cells assessed as reduction in human full length RhoA (1 to 193 residues) interaction with PKN1 at 50 to 200 uM incubated for 1 hr by Western blot analysis based His-RhoA pull-down assay
# Mus musculus [3] = organism: Mus musculus; assay: Inhibition of RhoGEF in mouse NIH/3T3 cells assessed as inhibition of 10% calf serum-induced Cdc42-GTP formation by measuring Cdc42-GTP level at 30 uM incubated for 24 hrs by densitometry relative to control (reference value: 3.25)
# [4] = tested on: Transforming protein RhoA (Homo sapiens), P61586 [Q63L]; assay: Inhibition of constitutively active RhoA Q63L mutant (unknown origin) expressed in mouse NIH/3T3 cells assessed as reduction in 10% calf serum-induced focal adhesion complex formation at 50 uM by anti-vinculin antibody staining based assay
# NIH3T3 = assay: Toxicity in mouse NIH/3T3 cells assessed as induction of apoptosis at 10 to 50 uM incubated for 24 hrs by Annexin-V/7-AAD staining based FACS analysis; details: nih3t3, 24 h
# Serine/threonine-protein kinase N1/Transforming protein RhoA (Homo sapiens), sequence (P61586 whole entry, looked up, the tested form may be a part): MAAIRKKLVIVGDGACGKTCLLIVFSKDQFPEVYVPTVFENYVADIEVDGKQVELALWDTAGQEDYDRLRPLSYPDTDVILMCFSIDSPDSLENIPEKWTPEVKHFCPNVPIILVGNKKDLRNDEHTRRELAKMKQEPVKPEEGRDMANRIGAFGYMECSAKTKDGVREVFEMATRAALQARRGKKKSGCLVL
# Serine/threonine-protein kinase N1/Transforming protein RhoA (Homo sapiens), sequence (Q16512 whole entry, looked up, the tested form may be a part): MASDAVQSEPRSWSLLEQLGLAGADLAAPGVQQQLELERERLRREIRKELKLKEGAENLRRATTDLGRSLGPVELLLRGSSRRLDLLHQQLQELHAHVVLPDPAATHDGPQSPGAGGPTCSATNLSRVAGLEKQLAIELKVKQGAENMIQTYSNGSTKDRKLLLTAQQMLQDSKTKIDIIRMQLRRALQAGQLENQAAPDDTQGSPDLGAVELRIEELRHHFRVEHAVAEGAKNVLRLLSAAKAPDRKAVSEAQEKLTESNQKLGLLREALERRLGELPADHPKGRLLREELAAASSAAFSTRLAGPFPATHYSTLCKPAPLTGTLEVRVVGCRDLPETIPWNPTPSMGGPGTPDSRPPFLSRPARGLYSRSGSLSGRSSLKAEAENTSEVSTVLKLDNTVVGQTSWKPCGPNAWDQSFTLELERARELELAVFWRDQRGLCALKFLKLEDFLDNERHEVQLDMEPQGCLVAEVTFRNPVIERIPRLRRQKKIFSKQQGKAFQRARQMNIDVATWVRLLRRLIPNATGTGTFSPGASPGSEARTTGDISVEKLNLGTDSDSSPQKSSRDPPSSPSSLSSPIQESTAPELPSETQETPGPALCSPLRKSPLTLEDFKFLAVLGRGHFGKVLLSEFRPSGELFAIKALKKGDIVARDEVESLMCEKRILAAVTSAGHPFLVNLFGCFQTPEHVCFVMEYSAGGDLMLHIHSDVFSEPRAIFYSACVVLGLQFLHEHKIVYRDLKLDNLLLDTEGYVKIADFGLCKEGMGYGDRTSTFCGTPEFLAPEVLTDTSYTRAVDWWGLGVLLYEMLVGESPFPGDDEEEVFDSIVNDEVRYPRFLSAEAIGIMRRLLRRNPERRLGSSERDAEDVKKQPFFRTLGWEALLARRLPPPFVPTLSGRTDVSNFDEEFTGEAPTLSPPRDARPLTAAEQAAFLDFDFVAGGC
# Transforming protein RhoA (Homo sapiens), P61586 [Q63L], sequence (P61586 whole entry Q63L): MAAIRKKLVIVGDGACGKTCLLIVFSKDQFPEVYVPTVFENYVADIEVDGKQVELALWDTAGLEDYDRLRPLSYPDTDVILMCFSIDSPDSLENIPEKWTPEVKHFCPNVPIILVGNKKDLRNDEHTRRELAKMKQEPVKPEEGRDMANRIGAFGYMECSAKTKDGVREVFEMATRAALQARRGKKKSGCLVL
compound,measurement,setting,value
Cc1cccc(COc2cccc(/C=C3\C(=O)NN(c4ccccc4)C3=O)c2)c1,fold change (FC),Mus musculus [1],2.23
same,inhibition,[2],inactive
same,fold change (FC),Mus musculus [3],2.11
same,inhibition,[4],inactive
same,Activity,NIH3T3,Non-Toxic
